Assays:
[1] = test system: wheat rust fungus (Puccinia recondita); assay: Test Example 2: wheat rust, foliar spray preventive test; format: in vivo; conditions: wheat (Shirogane), 500 ppm foliar spray, inoculated 5 days after spraying, assessed after 1 + 8 days
[2] = test system: rice blast fungus (Magnaporthe grisea); format: in vivo; conditions: rice (Nipponbare), 500 ppm foliar spray, contact with infected seedling, 6 days

| SMILES | area of the lesion on treated plant relative to untreated plant [1] [%] | lesion areas on treated plant relative to non-treated plant [2] [%] |
| --- | --- | --- |
| COC(=O)Nc1ccccc1COc1ccc(-c2ncccn2)cc1 [methyl N-(2-{[4-(pyrimidine-2-yl)phenoxy)methyl}phenyl)carbamate] | ≥ 70 |  |
| COC(=O)Nc1cccc(C)c1COc1ccc(-c2nccc(C)n2)cc1C [Compound 2] |  | ≤ 30 |

Source: patent US10194662B2, “Carbamate compound and use thereof” (SUMITOMO CHEMICAL COMPANY, LIMITED, priority 2015, dated 2019)
